What was measured:
Type in all cases: ADME, organism-based
Set-up in all cases: dose 200 mg, route oral
Homo sapiens [1] = assay: (§1) The pharmacokinetic parameters of Itraconazole after single oral administration of 200 mg Itraconzole to 9 male and 9 female healthy subjects in fasting and in fed conditions; settings: in vivo, po, dietary status Fasted, dosed compound id 2, dosed compound name ITRACONAZOLE, gender male and female, regimen Single dose, tissue Plasma
[2] = as §1; settings: both, human, in vivo, dietary status Fed, dosed compound id 2, dosed compound name ITRACONAZOLE, gender male and female, regimen Single dose, tissue Plasma
Homo sapiens [3] = assay: (§2) The steady-state pharmacokinetics of itraconazole analyzed after multiple oral dosing of 16 healthy volunteers with 200 mg Itraconazole following a moderate-fat breakfast once daily for 14 days in an open-label study; settings: in vivo, po, 336 h, dietary status Fed with moderate-fat breakfast, dosed compound id 2, dosed compound name ITRACONAZOLE, gender male and female, regimen Multiple dose, tissue Plasma
[4] = as §2; settings: human, in vivo, dietary status Fed with moderate-fat breakfast, dose 200 mg, dosed compound id 2, dosed compound name ITRACONAZOLE, gender male and female, regimen Multiple dose, route oral, tissue Plasma

With `CCC(C)n1ncn(-c2ccc(N3CCN(c4ccc(OCC5COC(Cn6cncn6)(c6ccc(Cl)cc6Cl)O5)cc4)CC3)cc2)c1=O` (configuration not stated) [ITRACONAZOLE] the Tmax (Homo sapiens [1]; dose 200 mg) was 2.9 h, the “AUC(0-inf)” value (Homo sapiens [1]) was 2270 ng·h/mL and the Cmax (Homo sapiens [1]) was 162 ng/mL. The Cmax ([2]; po, 200 mg) was 213 ng/mL, the AUC ([2]; po, 200 mg, read-out: AUC(0-inf)) was 3340 ng·h/mL and the Tmax ([2]; dose 200 mg, route oral) was 4.6 h. For the same molecule, the “AUC(0-24)” value (Homo sapiens [3]; study dosing duration 1 day) was 905.09 ng·h/mL, the Cmax ss (Homo sapiens [3]; study dosing duration 1 day) was 116.8 ng/mL and the “AUC(0-24)” value (Homo sapiens [3]; study dosing duration 14 day) was 9046.81 ng·h/mL. It also gave a Cmax ss (Homo sapiens [3]; study dosing duration 14 day) of 658.1 ng/mL, a Tmax ([4]; study dosing duration 1 day) of 4 h and a half-life ([4]; study dosing duration 14 day, read-out: t1/2 ss (converted)) of 36.8 h.

Reference: ChEMBL document CHEMBL3832544, “DailyMed|setid=fb8a2e5b-fd23-4977-81de-a95f4af168e2 | ONMEL- itraconazole tablet|Merz Pharmaceuticals, LLC”
